Data published in US10422775B2, “Methods for determining relative response factors for impurity analysis using liquid chromatography with absorbance and evaporative light scattering detection” (Waters Technologies Corporation, priority 2016, dated 2019).
Values joined by “and” are separate entries in the source; they are usually repeats but may differ in a detail not shown here. Identical values can stand only once.

Tests used:
[1] = Quantitation of by-product 4-methylcyclohexylamine by MS (SIR m/z 114.1) in acidic degradation of glimepiride; assay type: physicochemical; conditions: for 4-MeCHA / 4-MeCHA (%): by-product formed from glimepiride, acidic degradation
Experimental: (§1) The separation of glimepiride and related compounds B and C was achieved on a 2.1 mm×50 mm, 1.8 μm, ACQUITY UPLC HSS T3 C18 column (Waters Corporation) under isocratic conditions. The mobile phase was 0.1% (v/v) formic acid in 60:40 water/acetonitrile at a flow rate of 0.8 mL/min. The column temperature was 30° C. with mobile phase pre-heating. Injection volume was 4 μL. The PDA settings included wavelength of 228 nm, sampling rate of 20 points per second. The ELSD was set to a gas pressure of 25 psi, the nebulizer in Cooling mode, drift tube temperature of 55° C. and the gain set to 100 with a data rate of 10 points per second. The make-up pump was used for post-column addition of solvent using the ISM at a flow rate of 0.3 mL/min with 0.1% (v/v) formic acid in methanol. The mass detector (ACQUITY QDa, Waters Corp, USA) utilized positive electrospray ionization (ESI+), with a cone voltage set to 5 V. The capillary voltage was 1.4 kV and the sampling rate was 5 points per second. The mass range collected was 100-600 Da with additional single ion recording (SIR) channels were collected simultaneously for the following m/z=114.1 Da, 374.6 Da, 432.2 Da and 513.7 Da. The SIR channels were measured with a cone voltage of 5 V.
Additionally, standards of 4-Methylcylohexylamine for quantitation by mass spectrometry. Specifically, a solution of 4-methylcylcohexylamine was prepared at a concentration of 0.4 mg/mL in 25:75 water/methanol. Working standards were then prepared by diluting the stock with 25:75 water/methanol. Individual calibration standards were prepared in triplicate at 0.04% (w/w), 0.2%, 0.5%, 1%, 2% and 5%, of the sample concentration of 0.250 mg/mL. The labeled purity of 4-methylcylcohexylamine was 99.7%.
Mass detection was employed for confirmation of the degradation pathway and to reconcile mass balance differences. During the formation of both related compound B and related compound C, there is a loss of 4-methylcyclohexylamine (see FIG. 14).
Quantitation of 4-methylcyclohexylamine was achieved utilizing standards prepared from commercially available reagents. Working standards were prepared to cover the range from 0.04 to 10% (0.1 to 25 ug/mL). A single ion recording channel measuring the response for m/z=114.1 Da was used for quantitation. The working standard was present as a mixture of both the cis and trans geometric isomers. These isomers were partially separated chromatographically, therefore the sum of the isomers was used for the calibration curve. The calibration curve was quadratic and converted to a linear relationship using a log-log fit over the desired quantitation range with the parameters listed in the following table.
Using the calibration curve, 4-methylcylcohexylamine was quantified in the acidic and oxidative degradation reactions over the period of 5 days.

[2] = Example 2: forced degradation of glimepiride drug substance under basic hydrolysis conditions, UV % impurities and mass balance; assay type: physicochemical; conditions: for % Area (impurity peaks found in base hydrolysis): degradation peak in glimepiride drug substance
Experimental: (§2) The chromatographic system was an ultra-high performance liquid chromatography system, specifically, an ACQUITY UPLC H-Class system with a pump (ACQUITY Quaternary Solvent Manager (QSM)), an injector (ACQUITY Flow Through Needle (FTN) Autosampler) and a column manager (ACQUITY Column Manager). The autosampler was configured with a 50 μL extension loop. The seal wash was 90:10 water/methanol, purge solvent was methanol and the needle wash solvent was 0.1% (v/v) formic acid in 30:70 water/acetonitrile. Detection was performed with a photodiode array detector (ACQUITY UPLC PDA), an evaporative light scattering detector (ACQUITY UPLC ELSD) and a mass detector (ACQUITY QDa) (Waters, Milford, Mass.). The eluent flow path was plumbed from the column to a triple static tee (1:10 split flow) housed within a secondary pump (ACQUITY Isocratic Solvent Manager (ISM)). The tubing from the column to the tee was 22.5″ of 0.004″ ID tubing. In the first split, a portion of the flow was diverted to the PDA with 16″ of 100 μm ID fused silica tubing and then, in series, to the ELS detector with 12″ of 0.004″ ID PEEK tubing. Flow from the isocratic solvent manager was introduced into the second splitter, and the final portion of flow was diverted to the mass spectrometer via the detector probe (250 mm). The chromatography data system was Empower 3 FR3 (Waters, Milford, Mass.). The forced degradation was performed using a water bath (Isotemp) purchased from Fisher Scientific.
as §1
(§3) Over a period of 7 days, the drug substance was exposed to acidic, basic and oxidative conditions with goals of achieving approximately 10% degradation as quantified by UV. The samples were tested at 2 day intervals and analyzed by UV-ELS and MS.
Under basic hydrolysis conditions, the drug substance degraded rapidly, over a period of 1 day with >10% of degradation. […] In contrast to the previously described analyses, many smaller impurity peaks were observed.
(§4) Mass balance calculations were performed using the experimentally determined RRFs for acidic, oxidative and basic degradation conditions. […] Both the % impurity and recovery were impacted similarly, however, the implications for % impurity are greater, in that impurity reporting, identification and qualification thresholds can be impacted by as little as 0.05%.

[3] = Example 1: forced degradation (acid hydrolysis) of glimepiride with mass balance by UPLC-PDA using RRF; assay type: physicochemical; design: Amount: unit not given beside the values; conditions: acid hydrolysis 40° C.
Experimental: The controls and the samples that underwent acid hydrolysis were subjected to the following conditions.
Samples were analyzed using an ultra-high performance liquid chromatography system, specifically the ACUITY UPLC H-Class system from Waters Technologies Corporation. The system included photodiode array (PDA) and ELSD detectors, a quadrapole mass detector, specifically the Qda detector from Waters Technologies Corporation, and solvent and column managers. The PDA detector was used as a detector for UV-Vis absorbance. An ultra-high performance liquid chromatography column with 1.7 μm particle size and 2.1×50 mm column dimensions, specifically the ACUITY UPLC BEH C18 column from Waters Technologies Corporation, was used. The isocratic solvent manager was used with a flow rate of 0.3 mL/min and with 0.1% formic acid in methanol as a solvent. The following settings were used for the PDA and ELSD detectors.
Isocratic and gradients methods were developed for separation of impurities; however, the isocratic method was preferred as changing the solvent composition can affect the response and the size of droplets in ELSD. Mobile phase A was 0.1% (v/v) formic acid in water. Mobile phase B was 0.1% (v/v) formic acid in acetonitrile. The column temperature was 30° C. The injection volume was 2 μL. The flow rate was 0.8 mL/min. The isocratic tests included 60% mobile phase A and 40% mobile phase B. Conditions for the gradient tests are listed below. The system has a quaternary pump with four channels; however, only the A and B channels were used, which is why the C and D values are zero in the table below.
Two degradation impurities were present, which were labeled related compound B and related compound C. To ensure adequate separation and no co-elutions, peak purity was evaluated using a mass analysis window. FIG. 9 includes PDA peak purity and Mass analysis windows in the EMPOWER 3 data analysis software used to evaluate peak purity.
RRFs were calculated for the two impurities and the reciprocal of the RRF was used as a correction factor for each impurity to determine a corrected peak area for the impurity according to the following equation.
A reference sample was run by HPLC and the total corrected PDA peak area was determined for the reference sample as described below. The correction factor of the reciprocal of the RRF for an impurity was used to determine a corrected PDA peak area for each impurity in the reference sample. The total corrected PDA peak area was the sum of the corrected PDA peak area for each impurity and the PDA peak area for the API glimepiride. This total corrected PDA peak is the value used to calculate percentage recovery. Total Corrected peak area=peak areaAPI+ΣimpuritiesCorrected peak areaimpurity (8)
The degraded samples were run by HPLC and the correction factor of the reciprocal RRF for an impurity was used to obtain a corrected PDA peak area for each impurity in each degraded sample. For each degraded sample, a total corrected PDA peak area was calculated as the sum of the corrected PDA peak areas for the impurities and the PDA peak area for the API. The percentage recovery was the total corrected PDA peak area for the degraded sample divided by the total corrected peak are for the reference sample as indicated in the equation below.
Each peak area was determined based on the average of three different injections of the sample. The tables in FIG. 11 show example calculations of mass balance based on the experimental data.
The results of the molar mass balance calculations of data from the forced degradation studies using the RRF calculated in accordance with embodiments described herein are summarized in the table below and are graphically depicted in a chart in FIG. 12.

[4] = Example 2: forced degradation of glimepiride drug substance under acidic hydrolysis conditions, UV % impurities and mass balance; assay type: physicochemical; conditions: for % Impurities: UV
Experimental: as §2, §1, §3
Confirmation of the impurities was provided by the mass spectrometry.
as §4

[5] = Example 2: forced degradation of glimepiride drug substance under oxidative conditions (AIBN), UV % impurities and mass balance; assay type: physicochemical; conditions: for % Impurities: UV
Experimental: as §2, §1, §3
For example, FIG. 19 includes chromatograms from analysis of a glimepiride drug substance after 5 days of oxidation by AIBN. […] The third peak is a product of the AIBN oxidation (m/z 177.1)-*- as evidenced by analysis of the control. One of the unknown peaks present in the AIBN control (m/z=177.2 Da) was attributed to the reagent. As observed with the acidic hydrolysis of glimepiride, the by-product (m/z=114.1 Da) was also observed. In addition, the oxidation degradation produced two isobaric peaks as determined by the QDa measurement resulting in the same m/z values.
as §4, with “0.05%. […]” for “0.05%.”

[6] = cited from earlier work
[7] = cited from earlier work; remark: listed apart in the source

CC1CCC(N)CC1 (centres unmarked) [4-MeCHA, 4-methylcyclohexylamine]
4-MeCHA ([1]; 1 day): 0.36 µg/mL
4-MeCHA (%) ([1]; 1 day): 0.14%
4-MeCHA ([1]; 3 days): 0.98 µg/mL
4-MeCHA (%) ([1]; 3 days): 0.39%
4-MeCHA ([1]; 5 days): 1.74 µg/mL
4-MeCHA (%) ([1]; 5 days): 0.70%

CCC1=C(C)CN(C(=O)NCCc2ccc(S(N)(=O)=O)cc2)C1=O [Related compound B, 3-Ethyl-4-methyl-2-oxo-N-(4-sulfamoylphenethyl)-2,5-dihydro-1H-pyrrole-1-carboxamide]
% Area (impurity peaks found in base hydrolysis) ([2]; 1 day, UV): 1.83%

CCC1=C(C)CN(C(=O)NCCc2ccc(S(=O)(=O)NC(=O)NC3CCC(C)CC3)cc2)C1=O (stereo not drawn) [glimepiride, 1-[[4-[2[(3-ethyl-4-methyl-2-oxo-3pyrroline-1-carboxamido)ethyl]phenyl]-sulphony]-3-trans-(4-methylcyclohexyl)urea]]
Absolute Mass Balance Deficit ([3]; 1 day): −0.6
Amount ([3]; 1 day, n = 3): 239.0
Absolute Mass Balance Deficit ([3]; 3 days): −4.3
Amount ([3]; 3 days, n = 3): 242.7
Absolute Mass Balance Deficit ([3]; 5 days): −0.7
Amount ([3]; 5 days, n = 3): 239.1
Absolute Mass Balance Deficit ([3]; 7 days): −5.7
Amount ([3]; 7 days, n = 3): 244.1
Absolute Mass Balance Deficit ([3]; T = 0): 2.3
Amount ([3]; T = 0, n = 3): 236.1
% Impurities with RRF ([4]; 1 day): 1.95%
% Impurities ([4]; 1 day): 2.35%
% Impurities with RRF ([4]; 3 days): 5.14%
% Impurities ([4]; 3 days): 6.13%
% Impurities with RRF ([4]; 5 days): 8.15%
% Impurities ([4]; 5 days): 9.72% and 9.67%
% Impurities with RRF ([4]; 7 days): 16.69%
% Impurities ([4]; 7 days): 19.55%
% Impurities with RRF ([5]; 1 day): 1.45%
% Impurities ([5]; 1 day): 1.75%
% Impurities with RRF ([5]; 3 days): 4.05%
% Impurities ([5]; 3 days): 4.83%
% Impurities with RRF ([5]; 5 days): 6.28%
% Impurities ([5]; 5 days): 7.45%
% Impurities with RRF ([5]; 7 days): 8.42%
% Impurities ([5]; 7 days): 9.95%
% Impurities with RRF ([2]; basic hydrolysis, 1 day): 11.99%
% Impurities with RRF ([2]; basic hydrolysis, 3 days): 31.59%
% Impurities ([2]; basic hydrolysis, 3 days, UV): 33.45%
% Impurities with RRF ([2]; basic hydrolysis, 5 days): 51.92%
increase of recoveries on adding 4-methylcylcohexylamine ([1]; acidic hydrolysis conditions, over the time period): 0.2-1.1%
pKa value [6]: 4.32
soluble in methanol [7]: 0.5 mg/mL

CCC1=C(C)CN(C(=O)NCCc2ccc(S(=O)(=O)NC(=O)OC)cc2)C1=O [related compound C, methyl((4-(2-(3-ethyl-4-methyl-2-oxo-2,5-dihydro-1H-pyrrole-1-carboxamido)ethyl)phenyl)sulfonyl)carbamate]
% Area (impurity peaks found in base hydrolysis) ([2]; 1 day, UV): not observed
